In ChEMBL document CHEMBL4823263, “Discovery of 2-(3-(3-Carbamoylpiperidin-1-yl)phenoxy)acetic Acid Derivatives as Novel Small-Molecule Inhibitors of the β-Catenin/B-Cell Lymphoma 9 Protein-Protein Interaction” (J Med Chem, 2021):

Experiments:
[1] = Downregulation of HPRT level in human SW480 cells at 30 uM incubated for […] by quantitative real-time PCR analysis relative to control; type: ADME, cell-based; conditions: sw480, 30 µM
SW480 [2] = test: Antiproliferative activity against human SW480 cells incubated for 72 hrs by MTS assay; type: functional, cell-based; conditions: SW480, 72 h
MDA-MB-231 = test: Antiproliferative activity against human MDA-MB-231 cells incubated for 72 hrs by MTS assay; type: functional, cell-based; conditions: MDA-MB-231, 72 h
MDA-MB-468 = test: Antiproliferative activity against human MDA-MB-468 cells incubated for 72 hrs by MTS assay; type: functional, cell-based; conditions: MDA-MB-468, 72 h
SW480 [3] = test: Inhibition of Wnt/beta-catenin transactivation signalling in human SW480 cells harboring mutant tcf4 binding sites assessed as relative activity at 12.5 uM incubated for 24 hrs by FOPFlash luciferase assay relative to control; type: cell-based; parameters: scale not given: the % may be the effect or the level left
[4] = biological target: Protein Wnt-3a (Mus musculus) (UniProt P27467); test: Inhibition of mouse wnt3a expressed in human MDA-MB-231 cells assessed as cyclin D1 level at 3.3 uM incubated for […] by quantitative real-time PCR analysis relative to control; type: cell-based; parameters: scale not given: the % may be the effect or the level left
[5] = biological target: Protein Wnt-3a (Mus musculus) (UniProt P27467); test: Inhibition of mouse wnt3a expressed in human MDA-MB-231 cells assessed as cyclin D1 level at 30 uM incubated for […] by quantitative real-time PCR analysis relative to control; type: cell-based; parameters: scale not given: the % may be the effect or the level left
[6] = Downregulation of HPRT in human MDA-MB-231 cells assessed as HPRT level at 3.3 uM incubated for […] by quantitative real-time PCR analysis relative to control; type: ADME, cell-based; conditions: mda-mb-231, 3.3 µM
[7] = Downregulation of HPRT in human MDA-MB-231 cells assessed as HPRT level at 30 uM incubated for […] by quantitative real-time PCR analysis relative to control; type: ADME, cell-based; conditions: mda-mb-231, 30 µM
[8] = biological target: Protein Wnt-3a (Homo sapiens) (UniProt P56704); test: Inhibition of Wnt3a in human SW480 cells assessed as Axin2 level at 3.3 uM incubated for […] by quantitative real-time PCR analysis relative to control; type: cell-based; parameters: scale not given: the % may be the effect or the level left
[9] = biological target: Protein Wnt-3a (Homo sapiens) (UniProt P56704); test: Inhibition of Wnt3a in human SW480 cells assessed as Axin2 level at 10 uM incubated for […] by quantitative real-time PCR analysis relative to control; type: cell-based; parameters: scale not given: the % may be the effect or the level left
[10] = biological target: Protein Wnt-3a (Homo sapiens) (UniProt P56704); test: Inhibition of Wnt3a in human SW480 cells assessed as cyclin D1 level at 3.3 uM incubated for […] by quantitative real-time PCR analysis relative to control; type: cell-based; parameters: scale not given: the % may be the effect or the level left
[11] = biological target: Protein Wnt-3a (Homo sapiens) (UniProt P56704); test: Inhibition of Wnt3a in human SW480 cells assessed as cyclin D1 level at 30 uM incubated for […] by quantitative real-time PCR analysis relative to control; type: cell-based; parameters: scale not given: the % may be the effect or the level left
[12] = biological target: Protein Wnt-3a (Homo sapiens) (UniProt P56704); test: Inhibition of Wnt3a in human SW480 cells assessed as LEF1 level at 10 uM incubated for […] by quantitative real-time PCR analysis relative to control; type: cell-based; parameters: scale not given: the % may be the effect or the level left
[13] = biological target: Protein Wnt-3a (Homo sapiens) (UniProt P56704); test: Inhibition of Wnt3a in human SW480 cells assessed as LEF1 level at 30 uM incubated for […] by quantitative real-time PCR analysis relative to control; type: cell-based; parameters: scale not given: the % may be the effect or the level left
[14] = Downregulation of HPRT level in human SW480 cells at 3.3 uM incubated for […] by quantitative real-time PCR analysis relative to control; type: ADME, cell-based; conditions: sw480, 3.3 µM
[15] = Downregulation of HPRT level in human SW480 cells at 10 uM incubated for […] by quantitative real-time PCR analysis relative to control; type: ADME, cell-based; conditions: sw480, 10 µM
SW480 [16] = test: Inhibition of Wnt signalling in human SW480 cells assessed as reduction in Axin2 expression incubated for 24 hrs by Western blot analysis; type: cell-based
SW480 [17] = test: Inhibition of Wnt signalling in human SW480 cells assessed as reduction in cyclinD1 expression incubated for 24 hrs by Western blot analysis; type: cell-based
SW480 [18] = test: Antiproliferative activity against human SW480 cells harboring beta-catenin pcDNA3.1 vector incubated for 72 hrs by MTS assay; type: functional, cell-based; conditions: SW480, 72 h
[19] = Selectivity ratio of IC50 for human SW480 cells harboring beta-catenin pcDNA3.1 vector to IC50 for human SW480 cells harboring empty pcDNA3.1 vector

Chain of Protein Wnt-3a (Homo sapiens) (P56704 whole entry): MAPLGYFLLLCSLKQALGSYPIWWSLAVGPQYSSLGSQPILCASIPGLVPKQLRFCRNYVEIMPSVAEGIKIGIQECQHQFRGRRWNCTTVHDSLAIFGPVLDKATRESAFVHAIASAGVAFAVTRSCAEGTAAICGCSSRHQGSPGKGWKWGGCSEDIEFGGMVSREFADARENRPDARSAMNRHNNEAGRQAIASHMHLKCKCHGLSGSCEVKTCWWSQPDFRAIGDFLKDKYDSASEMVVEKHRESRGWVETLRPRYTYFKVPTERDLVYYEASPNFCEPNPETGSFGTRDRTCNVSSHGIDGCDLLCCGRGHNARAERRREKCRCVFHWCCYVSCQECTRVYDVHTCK
Chain of Protein Wnt-3a (Mus musculus) (P27467 whole entry): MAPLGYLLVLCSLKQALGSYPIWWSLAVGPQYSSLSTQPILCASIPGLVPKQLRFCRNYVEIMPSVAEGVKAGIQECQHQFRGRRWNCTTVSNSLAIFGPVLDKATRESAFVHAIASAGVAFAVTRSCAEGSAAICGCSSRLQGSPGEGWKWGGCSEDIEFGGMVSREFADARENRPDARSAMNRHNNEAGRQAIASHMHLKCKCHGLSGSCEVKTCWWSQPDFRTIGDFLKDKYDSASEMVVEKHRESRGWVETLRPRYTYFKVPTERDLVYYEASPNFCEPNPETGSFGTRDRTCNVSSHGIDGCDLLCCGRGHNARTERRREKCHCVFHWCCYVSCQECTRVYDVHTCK

Activity [1]: 99% | IC50 (SW480 [2]): 16.3 µM | IC50 (MDA-MB-231): 14.3 µM | IC50 (MDA-MB-468): 17.8 µM | Activity [4]: 94% | Activity [5]: 66% | Activity [6]: 102% | Activity [7]: 99% | Activity [8]: 99% | Activity [9]: 72% | Activity [10]: 53% | Activity [11]: 31% | Activity [12]: 77% | Activity [13]: 76% | Activity [14]: 98% | Activity [15]: 102% | IC50 (SW480 [18]): 86 µM
Structure (SMILES): CC(C)(Oc1cccc(N2CCC[C@H](C(=O)N(Cc3ccc(-c4cccs4)cc3)C3CC3)C2)c1)C(=O)NS(=O)(=O)c1ccc(C#N)cc1
Activity (SW480 [3]): 102% | Activity (SW480 [16]): Dose-Dependent Effect | Activity (SW480 [17]): Dose-Dependent Effect | Ratio IC50 [19]: 4
